Measurements reported in US10639382B2, “Method for treating leukemia” (National Guard Health Affairs, priority 2017, dated 2020).
Structures can show the parent of a compound that is named as a salt. Where two headings read alike, the source gives them in different places.

Columns and labels:
Type in all cases: cell-based, human
PBMCs from CML patients = experiment: Primary screening of FDA approved drug library, TitreGlo/CellTiter-Glo cell viability, PBMCs from CML patients; details: for inhibition at 10 µM: Homo sapiens, PBMC, read-out: % Inhibition, CML Average
PBMCs from CLL patients = experiment: Primary screening of FDA approved drug library, TitreGlo/CellTiter-Glo cell viability, PBMCs from CLL patients; details: for inhibition at 10 µM: Homo sapiens, PBMC, read-out: % Inhibition, CLL Average
PBMCs from AML patients = experiment: Primary screening of FDA approved drug library, TitreGlo/CellTiter-Glo cell viability, PBMCs from AML patients; details: for inhibition at 10 µM: Homo sapiens, PBMC, read-out: % Inhibition, AML Average
PBMCs from ALL patients = experiment: Primary screening of FDA approved drug library, TitreGlo/CellTiter-Glo cell viability, PBMCs from ALL patients; details: for inhibition at 10 µM: Homo sapiens, PBMC, read-out: % Inhibition, ALL Average
[1] = compound 10 uM, PBMCs from CML patients, average over patients, relative to high control (0%) and no-cell low control (100%)
[2] = compound 10 uM, PBMCs from CLL patients, average over patients, relative to high control (0%) and no-cell low control (100%)
[3] = compound 10 uM, PBMCs from AML patients, average over patients, relative to high control (0%) and no-cell low control (100%)
[4] = compound 10 uM, PBMCs from ALL patients, average over patients, relative to high control (0%) and no-cell low control (100%)

Compound | inhibition at 10 µM (PBMCs from CML patients; [1]) | inhibition at 10 µM (PBMCs from CLL patients; [2]) | inhibition at 10 µM (PBMCs from AML patients; [3]) | inhibition at 10 µM (PBMCs from ALL patients; [4]) | further results
Clc1ccc(CCC(Cn2ccnc2)Sc2c(Cl)cccc2Cl)cc1 (centres unmarked) [Butoconazole Nitrate] | 58.5% | 44.1% | 46.6% | 40.7% | –
Ivermectin | – | – | – | – | % Inhibition, CML Average (PBMCs from CML patients; [1]): 79.3%; % Inhibition, CLL Average (PBMCs from CLL patients; [2]): 66.0%; % Inhibition, AML Average (PBMCs from AML patients; [3]): 60.2%; % Inhibition, ALL Average (PBMCs from ALL patients; [4]): 70.4%
CN(C)C(=O)C(CCN1CCC(O)(c2ccc(Cl)cc2)CC1)(c1ccccc1)c1ccccc1 [Loperamide HCl] | 69.3% | 16.3% | 18.5% | 54.9% | –
CSc1ccc2c(c1)N(CCC1CCCCN1C)c1ccccc1S2 (centres unmarked) [Thioridazine HCl] | 70.3% | -40.9% | 27% | 23.1% | –
CC(C)(C)C(=O)OCOP(=O)(COCCn1cnc2c(N)ncnc21)OCOC(=O)C(C)(C)C [Adcfovir Dipivoxil] | 63.7% | 43.9% | 72.8% | 96% | –
CO[C@H]1C[C@@H]2CC[C@@H](C)[C@@](O)(O2)C(=O)C(=O)N2CCCC[C@H]2C(=O)O[C@H]([C@H](C)C[C@@H]2CC[C@@H](OC(=O)C(C)(CO)CO)[C@H](OC)C2)CC(=O)[C@H](C)/C=C(\C)[C@@H](O)[C@@H](OC)C(=O)[C@H](C)C[C@H](C)/C=C/C=C/C=C/1C [Temsirolimus] | 7% | 26.6% | 1.6% | -6.4% | –
C[C@H]1O[C@@H](O[C@H]2[C@@H](O)C[C@H](O[C@H]3[C@@H](O)C[C@H](O[C@H]4CC[C@@]5(C)[C@H](CC[C@@H]6[C@@H]5C[C@@H](O)[C@]5(C)[C@@H](C7=CC(=O)OC7)CC[C@]65O)C4)O[C@@H]3C)O[C@@H]2C)C[C@H](O)[C@@H]1O [Digoxin] | 76.8% | 30.1% | -33.2% | 32% | –
Nc1ccn([C@@H]2O[C@H](CO)[C@@H](O)[C@@H]2O)c(=O)n1 [Cytarabine] | 58.8% | 26.6% | 66.1% | 49.2% | –
COC(=O)C1=C(C)NC(C)=C(C(=O)OC)C1c1ccccc1[N+](=O)[O-] [Nifedipine] | 4.2% | -10.8% | 7.9% | 74.3% | –
CCN(CC)C(=S)SSC(=S)N(CC)CC [Disulfiram] | 92.4% | -45.4% | 64% | 91.5% | –
CC(CCc1ccc(O)cc1)NCCc1ccc(O)c(O)c1 (centres unmarked) [Dobutamine HCl] | 25.3% | -5% | -10.5% | 79.6% | –
CCN(CC)CCNC(=O)c1c(C)[nH]c(/C=C2\C(=O)Nc3ccc(F)cc32)c1C [Sunitinib Malate] | 65.2% | 40.5% | 56.5% | 54.2% | –
Nc1nc(Cl)nc2c1ncn2[C@@H]1O[C@H](CO)[C@@H](O)[C@@H]1F [Clofarabine] | 21.9% | 41.3% | -20.6% | 68.1% | –
CO[C@H]1/C=C/O[C@@]2(C)Oc3c(C)c(O)c4c(O)c(c(/C=N/N5CCN(C6CCCC6)CC5)c(O)c4c3C2=O)NC(=O)/C(C)=C\C=C\[C@H](C)[C@H](O)[C@@H](C)[C@@H](O)[C@@H](C)[C@H](OC(C)=O)[C@@H]1C [Rifapentine] | 76.5% | 12.3% | -3.2% | – | –
C[C@@H](NCCCc1cccc(C(F)(F)F)c1)c1cccc2ccccc12 [Cinacalcet HCl] | 63.3% | 28.6% | 43.2% | 41.9% | –
Clc1ccc(COC(Cn2ccnc2)c2ccc(Cl)cc2Cl)c(Cl)c1 (centres unmarked) [Miconazole] | 69.9% | -3.3% | 38.1% | -35.1% | –
[H]/N=C(\N/C(=N/[H])NCCCCCCNC(=N)NC(=N)Nc1ccc(Cl)cc1)Nc1ccc(Cl)cc1 [Chlorhexidine Dihydrochloride] | 59.9% | 70.3% | 26.9% | 53.6% | –
O=C1c2c(O)ccc(O)c2C(=O)c2c(NCCNCCO)ccc(NCCNCCO)c21 [Mitoxantrone HCl] | 72.6% | 71.1% | 68.8% | 73.7% | –
Nc1nc(F)nc2c1ncn2[C@@H]1O[C@H](COP(=O)(O)O)[C@@H](O)[C@@H]1O [Fludarabine Phosphate] | 19.1% | 17.3% | 21.8% | 53.9% | –
CNC[C@H](O)c1ccc(O)c(O)c1.O=C(O)C(O)C(O)C(=O)O [L-(−)-Epinephrine-(+)-Bitartrate] | – | – | – | – | % Inhibition, CML Average (PBMCs from CML patients; [1]): 68.4%; % Inhibition, CLL Average (PBMCs from CLL patients; [2]): 45.4%; % Inhibition, AML Average (PBMCs from AML patients; [3]): −2.8%; % Inhibition, ALL Average (PBMCs from ALL patients; [4]): 80.5%
Oc1c(Cl)cc(Cl)c(Cl)c1Cc1c(O)c(Cl)cc(Cl)c1Cl [Hexachlorophene] | – | – | – | – | inhibition at 10 µM (PBMCs from CML patients): 26.3%; inhibition at 10 µM (PBMCs from CLL patients): -13.5%; inhibition at 10 µM (PBMCs from AML patients): 35%; inhibition at 10 µM (PBMCs from ALL patients): 23%
CC(=O)[C@]1(O)Cc2c(O)c3c(c(O)c2[C@@H](O[C@H]2C[C@H](N)[C@H](O)[C@H](C)O2)C1)C(=O)c1ccccc1C3=O [Idarubicin HCl] | 43.5% | 54.8% | 79% | 73.5% | –
O=c1[nH]c2ccccc2n1C1CCN(CCCC(c2ccc(F)cc2)c2ccc(F)cc2)CC1 [Pimozide] | 69% | 39.5% | 42.3% | 58.8% | –
Cc1ncc([N+](=O)[O-])n1CCO [Metronidazole] | -17.3% | 31% | -25.2% | -23.9% | –
NC(N)=Nc1nc(CSCCC(N)=NS(N)(=O)=O)cs1 [Famotidine] | 17.1% | 39.2% | 5.3% | 13.4% | –
COc1cccc2c1C(=O)c1c(O)c3c(c(O)c1C2=O)C[C@@](O)(C(C)=O)C[C@@H]3O[C@H]1C[C@H](N)[C@H](O)[C@H](C)O1 [Daunorubicin HCl] | 67.6% | 65.5% | 64% | 78.4% | –
CS(=O)(=O)CCNCc1ccc(-c2ccc3ncnc(Nc4ccc(OCc5cccc(F)c5)c(Cl)c4)c3c2)o1 [Lapatinib Ditosylate] | 76.6% | 6.9% | -76.1% | 35.1% | –
CN(C)CCCN1c2ccccc2CCc2ccccc21 [Imipramine HCl] | 13.7% | – | 1.9% | -6% | –
